Laboratory results as given in patent US11357857B2, “Excipient compounds for protein processing” (COMERA LIFE SCIENCES, INC., priority 2014, dated 2022).
Where a name gives a salt, the structure may show the parent alone. Read-outs that look alike come from different tables or passages of the source. Values belong to the compound of their own block, whether it stands above or below them. Residues, ends and D or L forms follow the SMILES beside them.

Key:
[1] = system: bovine gamma globulin (BGG); assay: Viscosity of 280 mg/mL BGG formulations in 50 mM histidine HCl pH 6 with excipient, cone and plate viscometer (Examples 1, 2, 4-6); type: physicochemical
[2] = system: bovine gamma globulin (BGG)
[3] = Caffeine solubility testing with co-solutes at ambient temperature (Examples 32-33); conditions: for Observation of caffeine dissolution: co-solute 30 mg/mL, caffeine 80 mg/mL
Experimental: Prepared solutions were used either neat or diluted with deionized water.
A small magnetic stir bar was added to the vial, and the solution was allowed to mix vigorously on a stir plate for about 10 minutes.

[4] = Viscosity of PEG (Mw ~1,000,000) solution in Tris buffer with excipient (Examples 12-13); type: physicochemical
[5] = system: bovine gamma globulin (BGG); assay: Normalized viscosity of 280 mg/mL BGG in 20 mM histidine with excipients A/B (Example 20); type: physicochemical; conditions: no B
Description: Excipient compounds for this Example are listed below in Table 11.

Viscosity ([1]; excipient 26 mg/mL): 58 cP
Viscosity Reduction ([1]; excipient 26 mg/mL): 27%
Viscosity ([1]; excipient 58 mg/mL): 50 cP
Viscosity Reduction ([1]; excipient 58 mg/mL): 37%
Viscosity ([1]; excipient 76 mg/mL): 49 cP
Viscosity Reduction ([1]; excipient 76 mg/mL): 38%
Viscosity ([1]; excipient 103 mg/mL): 46 cP
Viscosity Reduction ([1]; excipient 103 mg/mL): 42%
Viscosity ([1]; excipient 129 mg/mL): 47 cP
Viscosity Reduction ([1]; excipient 129 mg/mL): 41%
Viscosity ([1]; excipient 159 mg/mL): 42 cP
Viscosity Reduction ([1]; excipient 159 mg/mL): 47%
Viscosity ([1]; excipient 163 mg/mL): 42 cP
Viscosity Reduction ([1]; excipient 163 mg/mL): 47%
Compound: N=C(N)NCCS(=O)(=O)O [Product of Example 8, Guanyl taurine]

Viscosity ([1]; excipient 25 mg/mL): 56 cP
Viscosity Reduction ([1]; excipient 25 mg/mL): 29%
Viscosity ([1]; excipient 50 mg/mL): 50 cP
Viscosity Reduction ([1]; excipient 50 mg/mL): 37%
Compound: COc1cc(C(=O)[O-])ccc1O.[Na+] [Vanillic acid, sodium salt]

Viscosity Reduction ([2]; excipient 50 mg/mL): 40%
Compound: C1COCCN1.Cl [Morpholine HCl]

Viscosity ([1]; excipient 44 mg/mL): 49 cP
Viscosity Reduction ([1]; excipient 44 mg/mL): 38%
Viscosity ([1]; excipient 96 mg/mL): 42 cP
Viscosity Reduction ([1]; excipient 96 mg/mL): 47%
Compound: Nc1ccc(S(=O)(=O)[O-])cc1.[Na+] [Sodium sulfanilate]

Viscosity Reduction ([2]; excipient 100 mg/mL): 57%
Compound: c1c[nH]cn1 [Imidazole HCl]

Viscosity ([1]; excipient 50 mg/mL): 60 cP
Viscosity Reduction ([1]; excipient 50 mg/mL): 24%
Viscosity ([1]; excipient 100 mg/mL): 59 cP
Viscosity Reduction ([1]; excipient 100 mg/mL): 25%
Compound: Trp2Lys3

Viscosity ([1]; excipient 48 mg/mL): 39 cP
Viscosity Reduction ([1]; excipient 48 mg/mL): 51%
Observation of caffeine dissolution [3]: DND
Viscosity Reduction ([2]; excipient 50 mg/mL): 49%
Compound: NC(=O)c1cccnc1 [Niacinamide]

Viscosity Reduction ([2]; excipient 50 mg/mL): 59%
Compound: Cl.NCCc1c[nH]cn1 [Histamine HCl]

Normalized Viscosity ([5]; excipient A 30 mg/mL): 0.58
Normalized Viscosity ([5]; excipient A 60 mg/mL): 0.51
Compound: O=C1NS(=O)(=O)c2ccccc21 [Saccharin]

Viscosity Reduction ([2]; excipient 50 mg/mL): 52%
Compound: NC(=O)c1ccncc1 [Isonicotinamide]

Viscosity ([1]; excipient 30 mg/mL): 45 cP
Viscosity Reduction ([1]; excipient 30 mg/mL): 43%
Viscosity ([1]; excipient 52 mg/mL): 52 cP
Viscosity Reduction ([1]; excipient 52 mg/mL): 34%
Compound: CN1CCCC1=O [N-Methyl-2-pyrrolidone]

The remaining lines, values behind:

Compound: N=C(N)NCCCCN.O=S(=O)(O)O [Agmatine sulfate]
Viscosity Reduction ([2]; excipient 55 mg/mL): 23%

Compound: O=C([O-])c1ccccc1.[Na+] [Sodium benzoate]
Viscosity ([1]; excipient 31 mg/mL): 61 cP
Viscosity Reduction ([1]; excipient 31 mg/mL): 23%
Viscosity ([1]; excipient 56 mg/mL): 62 cP
Viscosity Reduction ([1]; excipient 56 mg/mL): 22%

Compound: NC(C1CCCCC1)C1CCCCC1 [DCHMA-HCl, dicyclohexylmethylamine]
Viscosity ([1]; excipient 29 mg/mL): 51 cP
Viscosity Reduction ([1]; excipient 29 mg/mL): 35%
Viscosity ([1]; excipient 50 mg/mL): 51 cP
Viscosity Reduction ([1]; excipient 50 mg/mL): 35%

Compound: CCCCCCn1cc[n+](C)c1.[Cl-] [1-hexyl-3-methylimidazolium chloride]
Viscosity Reduction ([2]; excipient 65 mg/mL): 11%

Compound: Arg-Arg [Dipeptide RR (Arg-Arg)]
Viscosity ([1]; excipient 50 mg/mL): 57 cP
Viscosity Reduction ([1]; excipient 50 mg/mL): 28%
Viscosity ([1]; excipient 100 mg/mL): 62 cP
Viscosity Reduction ([1]; excipient 100 mg/mL): 22%

Compound: O=C(O)CN(CCN(CC(=O)O)CC(=O)O)CC(=O)O [EDTA/Na salt, ethylenediaminetetraacetic acid (EDTA)]
Viscosity ([4]; excipient 20 mg/mL): 77.4 cP
Viscosity Reduction ([4]; excipient 20 mg/mL): 26%
Viscosity ([4]; excipient 40 mg/mL): 68.1 cP
Viscosity Reduction ([4]; excipient 40 mg/mL): 35%

Compound: Arg-His [Dipeptide RH (Arg-His)]
Viscosity ([1]; excipient 50 mg/mL): 52 cP
Viscosity Reduction ([1]; excipient 50 mg/mL): 34%
Viscosity ([1]; excipient 100 mg/mL): 72 cP
Viscosity Reduction ([1]; excipient 100 mg/mL): 9%

Compound: Arg-Lys [Dipeptide RK (Arg-Lys)]
Viscosity ([1]; excipient 50 mg/mL): 53 cP
Viscosity Reduction ([1]; excipient 50 mg/mL): 33%
Viscosity ([1]; excipient 100 mg/mL): 64 cP
Viscosity Reduction ([1]; excipient 100 mg/mL): 19%

Compound: Cl.NCCc1ccc(O)cc1 [Tyramine HCl]
Observation of caffeine dissolution [3]: DND
Dissolution of caffeine enabled relative to reported solubility limit ([3]; co-solute in water, ambient temperature (about 23 C)): at least about four times
Viscosity Reduction ([2]; excipient 70 mg/mL): 59%

Compound: CN(C)C1CCCCC1 [DMCHA-HCl, dimethylcyclohexylamine]
Viscosity [1]: 35 cP
Viscosity Reduction [1]: 56%
Viscosity ([1]; excipient 28 mg/mL): 50 cP
Viscosity Reduction ([1]; excipient 28 mg/mL): 37%
Viscosity ([1]; excipient 41 mg/mL): 43 cP
Viscosity Reduction ([1]; excipient 41 mg/mL): 46%
Viscosity ([1]; excipient 50 mg/mL): 45 cP
Viscosity Reduction ([1]; excipient 50 mg/mL): 43%
Viscosity ([1]; excipient 82 mg/mL): 36 cP
Viscosity Reduction ([1]; excipient 82 mg/mL): 54%
Viscosity ([1]; excipient 164 mg/mL): 40 cP
Viscosity Reduction ([1]; excipient 164 mg/mL): 49%
Viscosity Reduction ([2]; excipient 120 mg/mL): 56%

Compound: COC(=O)[C@H](Cc1ccccc1)NC(=O)[C@@H](N)CC(=O)O [Aspartame] (H-Asp-Phe-OMe)
Normalized Viscosity ([5]; excipient A 10 mg/mL): 0.83

Compound: O=C(O)[C@H](O)[C@@H](O)[C@H](O)[C@H](O)CO [D-Gluconic acid/K salt, D-Gluconic acid]
Viscosity ([4]; excipient 20 mg/mL): 88.4 cP
Viscosity Reduction ([4]; excipient 20 mg/mL): 16%
Viscosity ([4]; excipient 40 mg/mL): 80.32 cP
Viscosity Reduction ([4]; excipient 40 mg/mL): 23%

Compound: Arg-Glu [Dipeptide RE (Arg-Glu)]
Viscosity ([1]; excipient 50 mg/mL): 50 cP
Viscosity Reduction ([1]; excipient 50 mg/mL): 37%
Viscosity ([1]; excipient 100 mg/mL): 66 cP
Viscosity Reduction ([1]; excipient 100 mg/mL): 16%

Compound: Cc1cc(C)nc(C)c1 [2,4,6-trimethylpyridine]
Viscosity Reduction ([2]; excipient 50 mg/mL): 51%

Compound: CCCCn1cc[n+](C)c1.[I-] [1-butyl-3-methylimidazolium iodide]
Viscosity Reduction ([2]; excipient 60 mg/mL): 34%
